Columns and labels:
[1] = tested on: Therminator γ DNA polymerase; experiment: Quantitative real-time PCR analysis (fluorescence after each cycle, Ct standard curve); format: biochemical; conditions: for Sensitivity (Required PCR cycles for 1 copy number: Y-intercept): real-time PCR standard curve, a lower value means more sensitivity; for (Efficiency, %) [100 × (10^(−1/slope) − 1)]: real-time PCR, template 10 nM to 10 fM, 40 cycles, Max = 100%
Description: Total of 40 cycles of PCR was performed, wherein each cycle consists of 94° C. for 10 sec, 54° C. for 15 sec, and 72° C. for 10 sec. After each cycle was completed, fluorescence intensity was measured in real time by using StepOne real-time PCR system (ABI). […] Ct (threshold cycle) value was set up by determining the point at which the threshold encounters the polymerization curve. […] Analysis was performed under the PCR conditions, the equipment and the method identical to that of <example 4>.

Taq DNA polymerase = target: T1, Taq DNA polymerase (Thermus aquaticus, UniProt P19821); experiment: Primer extension reaction with PAGE to search for a DNA polymerase able to use γF-dGTP as a substrate; format: biochemical; conditions: γF-dGTP 25 uM instead of dGTP; 5 cycles 94/46/60° C.; 20% denaturing PAGE, FIG. 3
T1 construct: purchased New England Biolabs
Description: (§1) In order to search DNA polymerase, primer extension reaction was performed.
(§2) More specifically, the mixed reaction solution was heated by repeating five times a cycle consisting of 20 sec at 94° C., 40 sec at 46° C., and 90 sec at 60° C.
For a control group experiment, Taq DNA polymerase reaction was performed by using dGTP in a natural state instead of γF-dGTP under the same conditions mentioned above.
(§3) After each polymerase reaction, the mixed reaction solution was developed (Vertical Gel Electrophoresis Unit, Sigma-Aldrich) by using 20% denaturing polyacrylamide gel electrophoresis (PAGE). As a result, an image of DNA fluorescence band was obtained by using scanner (Typhoon9400, GE healthcare).

[2] = tested on: Therminator γ DNA polymerase; experiment: as above; format: biochemical; conditions: γF-dGTP 25 uM instead of dGTP; 5 cycles 94/46/60° C.; 20% denaturing PAGE, FIG. 3
Description: as §1, §2, §3

Phi29 DNA polymerase = Phi29 DNA polymerase (Bacillus phage phi29, UniProt P03680); conditions: γF-dGTP 25 uM, 30° C. for 20 min, read every 20 sec; FIG. 6
Description: Real-time RCA (rolling circle amplification) analysis was performed by using 20 ul of mixed reaction solution comprising the primer having SEQ ID: 6 (5′-[…], 100 nM), the template chain having SEQ ID: 7 (5′-[…] […], 100 nM), dATP (25 uM, Promega), dCTP (25 uM, Promega), dTTP (25 uM, Promega), γF-dGTP (25 uM), BSA (100 μg/mL), Phi29 DNA polymerase reaction buffer (New England Biolabs), and Phi29 DNA polymerase. (6 units) The reaction was performed at 30° C. for 20 min and fluorescence intensity at every 20 sec was measured by the equipment used in <example 4>.

Chain of Phi29 DNA polymerase (P03680 whole entry): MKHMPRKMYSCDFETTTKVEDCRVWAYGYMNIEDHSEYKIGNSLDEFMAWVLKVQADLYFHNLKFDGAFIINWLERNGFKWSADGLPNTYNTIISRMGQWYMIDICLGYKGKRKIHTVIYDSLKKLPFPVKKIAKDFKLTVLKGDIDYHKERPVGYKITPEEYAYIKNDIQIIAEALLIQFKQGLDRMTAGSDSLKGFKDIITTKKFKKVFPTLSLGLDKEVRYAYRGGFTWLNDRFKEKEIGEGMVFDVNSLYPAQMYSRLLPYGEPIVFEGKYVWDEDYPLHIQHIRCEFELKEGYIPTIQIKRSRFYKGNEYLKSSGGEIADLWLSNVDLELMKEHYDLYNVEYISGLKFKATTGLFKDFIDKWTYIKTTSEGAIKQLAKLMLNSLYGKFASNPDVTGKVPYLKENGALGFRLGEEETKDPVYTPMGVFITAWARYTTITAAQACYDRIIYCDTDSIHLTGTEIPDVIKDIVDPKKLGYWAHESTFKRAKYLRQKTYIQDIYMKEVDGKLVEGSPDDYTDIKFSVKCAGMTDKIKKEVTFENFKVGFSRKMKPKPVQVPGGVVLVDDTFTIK
T1 sequence (P19821 whole entry): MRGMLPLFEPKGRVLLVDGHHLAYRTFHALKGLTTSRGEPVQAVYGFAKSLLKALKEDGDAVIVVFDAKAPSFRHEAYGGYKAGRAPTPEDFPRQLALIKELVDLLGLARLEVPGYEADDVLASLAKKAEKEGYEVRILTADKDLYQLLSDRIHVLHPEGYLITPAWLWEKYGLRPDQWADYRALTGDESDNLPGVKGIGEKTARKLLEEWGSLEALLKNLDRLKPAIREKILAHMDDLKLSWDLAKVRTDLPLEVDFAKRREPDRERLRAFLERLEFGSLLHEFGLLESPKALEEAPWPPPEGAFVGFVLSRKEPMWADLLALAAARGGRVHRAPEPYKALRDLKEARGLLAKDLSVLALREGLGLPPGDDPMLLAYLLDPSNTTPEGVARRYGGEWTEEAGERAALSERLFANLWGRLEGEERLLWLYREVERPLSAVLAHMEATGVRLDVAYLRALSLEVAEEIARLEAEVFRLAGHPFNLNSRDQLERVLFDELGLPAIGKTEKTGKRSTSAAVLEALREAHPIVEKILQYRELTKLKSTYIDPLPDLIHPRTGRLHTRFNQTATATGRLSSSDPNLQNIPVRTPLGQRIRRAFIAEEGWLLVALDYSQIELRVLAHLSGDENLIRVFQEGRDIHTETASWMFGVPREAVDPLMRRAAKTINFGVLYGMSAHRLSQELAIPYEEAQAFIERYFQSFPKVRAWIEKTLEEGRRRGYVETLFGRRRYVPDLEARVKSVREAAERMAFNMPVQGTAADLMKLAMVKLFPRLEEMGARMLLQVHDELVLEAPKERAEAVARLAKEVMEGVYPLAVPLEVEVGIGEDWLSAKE

| Structure (SMILES) | Sensitivity (Required PCR cycles for 1 copy number: Y-intercept) [1] | (Efficiency, %) [100 × (10^(−1/slope) − 1)] [1] [%] | Use as a substrate by the polymerase (fully extended polymerization product on PAGE) (Taq DNA polymerase) | Use as a substrate by the polymerase (fully extended polymerization product on PAGE) [2] | Fluorescence intensity during real-time RCA (Phi29 DNA polymerase) |
| --- | --- | --- | --- | --- | --- |
| CCCN(CCCN(C)C)c1cc(/C=C2/Sc3ccccc3N2C)c2ccccc2[n+]1-c1ccccc1 [SYBR green I, reference compound] | 47.2 | 80.5 | – | – | – |
| CC1=CC(C)=[N+]2C1=Cc1ccc(CCC(=O)NCCNP(=O)(O)OP(=O)(O)OP(=O)(O)OC[C@H]3O[C@@H](n4cnc5c(=O)[nH]c(N)nc54)C[C@@H]3O)n1[B-]2(F)F [γF-dGTP] | 41.5 | 93.4 | can use the modified nucleotide as a substrate | can use the modified nucleotide as a substrate | fluorescence intensity increases |

Source: US20120064531A1, “MODIFIED NUCLEOTIDE AND REAL-TIME POLYMERASE REACTION USING THE SAME” (Korea Institute of Science and Technology, priority 2010, published 2012)
